“And” between values parts separate entries of the source, which are not always exact repeats. Identical values can stand only once.
System: genes involved in longevity (Array 1)
Test: Custom RT-PCR microarray (Array 1) gene expression in skin fibroblasts, UVB/UVA1
Format: cell-based, human
Protocol: Seeding of cells: On Day 1, each cell culture was seeded into 6 well cluster dishes at ˜1.5×10^5 cells in 4 mls medium per well. Three wells were seeded per test condition or control.
Experimental phase: On Day 3, wells were washed 1× with 2 mls medium, fed back 2 mls medium without fetal bovine serum and preincubated for 30-60 minutes before challenge with test or control conditions. After the preincubation, medium was aspirated from the wells and 2.5 mls of test or control condition in medium with 1% fetal bovine serum was pipetted into the appropriate wells.
(3) UVA1, UVB exposed and unexposed cells without test condition were used as controls. The experimental phase ended at 24 hours post UV exposure. Cells from each test and control parameter were then prepped for RNA isolation as described below.
UVB/UVA1 exposure: Cells exposed to UV received 200 mJ/cm^2 UVB/1 MED UVA1 using Thermo Oriel solar simulator model SP66923-3056. Cells were exposed from the bottom of the culture dish. The UV dose delivered to the cells was adjusted for interference from the plastic in the culture dish.
Preparation of RNA: The RNA was isolated using the Qiagen RNEasy Plus Mini Kit according to the manufacturer's protocol which can be found on the World Wilde Web at qiagen.com/literature/Defaultaspx?Term=&Language=EN&LiteratureType=4& ProductCategory=10162. The RNA was quantified and examined for purity using the 260/280 nm read method in a μ Quant spectrophotometer before use in the array.
Creation and Performance of a Custom Microarray (“Array 1”): Through the Custom Array design service of Superarray Bioscience Corporation, a 96 well RT-PCR microarray (“Array 1”) was developed to illustrate genetic responses in cells treated as above for specific genes involved in longevity as well as the relevant quality controls. The array was performed in compliance with manufacturer's guidelines and by recommended manufacturer's protocol as can be found on the World Wilde Web at superarray.com/Manual/perarrayplate.pdf
Custom Microarray Results: The results from the microarrays were determined using the delta CT method which uses comparisons of control genes and threshold cycles of genes of interest to generate relative expression values. The full set of experimental conditions was cross referenced and the data is provided herewith in DATA TABLE 3.
Preparation of RNA: The RNA was isolated using the Qiagen RNEasy Plus Mini Kit according to the manufacturer's protocol which can be found on the World Wide Web at qiagen.com/literature/Default. aspx?Term=&Language=EN&LiteratureType=4&ProductCategory=10162.
The RNA was quantified and examined for purity using the 260/280 nm read method in a μ Quant spectrophotometer before use in the array.
Creation and Performance of the Custom Microarray: Through the Custom Array design service of Superarray Bioscience Corporation, a 96 well RT-PCR Microarray was developed to illustrate genetic responses in cells treated as above for specific genes involved in longevity as well as the relevant quality controls. The array was performed in compliance with manufacturer's guidelines and by recommended manufacturer's protocol as can be found on the World Wide Web at superarray.com/Manual/perarrayplate.pdf.
Custom Microarray Results: The results from the microarrays were determined using the delta CT method which uses comparisons of control genes and threshold cycles of genes of interest to generate relative expression values. The full set of experimental conditions was cross referenced and the data is provided herewith in DATA TABLE 4.
Custom Microarray Results: The results from the microarrays were determined using the delta CT method which uses comparisons of control genes and threshold cycles of genes of interest to generate relative expression values. The full set of experimental conditions was cross referenced and the data is provided herewith in DATA TABLE 5. […]

[1] = donor four cell line, UVB, agent 4 hr incubation
[2] = donor four cell line, UVB, agent continuous incubation
[3] = donor three idebenone + UVB 4 hr Incubation
[4] = donor three idebenone + UVB Continuous Incubation
[5] = donor three idebenone + UVB vs. Green tea + UVB 4 hr Incubation
[6] = donor three vs. donor two idebenone + UVB 4 hr Incubation
[7] = donor three vs. donor two idebenone + UVB Continuous Incubation

Structure (SMILES): COC1=C(OC)C(=O)C(CCCCCCCCCCO)=C(C)C1=O [Idebenone, 6-(10-hydroxydecyl)-2,3-dimethoxy-5-methyl-1,4-benzoquin-one]
- IFI44 expression [1]: 2.63
- NADSYN1 expression [1]: 2.21
- NFKB1 expression [1]: 3.24
- PARP1 Expression [1]: 4.27
- TERT expression [1]: 8.54
- IFI44 expression [2]: 2.98
- TERT expression [2]: 4.36
- TERT expression (donor one cell line, UVB, agent continuous incubation): 8.50
- ACE expression fold change [3]: 2.29
- ACTB expression fold change [3]: −2.01
- APOE expression fold change [3]: −1.32
- BAX expression fold change [3]: 1.41
- BCL2 expression fold change [3]: 4.13
- CASP2 expression fold change [3]: 1.31
- CASP9 expression fold change [3]: 2.06
- CCL4L1 expression fold change [3]: 9.82
- CLK1 expression fold change [3]: 1.41
- COX1 expression fold change [3]: −1.11
- CREBBP expression fold change [3]: −1.32
- CYP19A1 expression fold change [3]: 6.94
- DDC expression fold change [3]: 4.74
- GAPDH expression fold change [3]: −1.04
- GH1 expression fold change [3]: 3.35
- HIGX1A fold change [3]: 1.93
- HLA-DRA expression fold change [3]: 4.27
- HPRT1 expression fold change [3]: 3.47
- HSPA1A expression fold change [3]: 1.68
- HSPA1B expression fold change [3]: 1.99
- HSPA1L expression fold change [3]: −1.42
- IFI44 expression fold change [3]: 2.63
- IGF1 expression fold change [3]: 4.13
- IGF2 expression fold change [3]: −1.24
- IL1A expression fold change [3]: 2.54
- IL6 expression fold change [3]: 1.27
- IL10 expression fold change [3]: 1.46
- KRAS expression fold change [3]: 1.27
- MAPK14 expression fold change [3]: 1.46
- NADSYN1 expression fold change [3]: 2.21
- NFKB1 expression fold change [3]: 3.24
- NOS2A expression fold change [3]: 16.51
- PARP1 expression fold change [3]: 4.27
- PARP2 expression fold change [3]: 3.72
- PPARG expression fold change [3]: 1.99
- PPC fold change [3]: 1.07 and 1.23
- PTGS2 expression fold change [3]: 2.63
- RTC fold change [3]: 3.13 and 4.74
- SHC1 expression fold change [3]: 1.19
- SIRT1 expression fold change [3]: 1.41
- SOD1 expression fold change [3]: 1.41
- SOD2 expression fold change [3]: 1.07
- TEP1 expression fold change [3]: 1.23
- TERT expression fold change [3]: 8.54
- TNF expression fold change [3]: −1.19
- TP53 expression fold change [3]: −1.15
- ACE expression fold change [4]: 2.34
- ACTB expression fold change [4]: −3.93
- APOE expression fold change [4]: 1.49
- BAX expression fold change [4]: 2.26
- BCL2 expression fold change [4]: 7.09
- CASP2 expression fold change [4]: 1.09
- CASP9 expression fold change [4]: 5.19
- CCL4L1 expression fold change [4]: 10.02
- CLK1 expression fold change [4]: 1.71
- COX1 expression fold change [4]: 1.05
- CREBBP expression fold change [4]: −1.21
- CYP19A1 expression fold change [4]: 5.56
- DDC expression fold change [4]: 4.84
- GAPDH expression fold change [4]: −1.83
- GH1 expression fold change [4]: 2.18
- HIGX1A fold change [4]: 1.71
- HLA-DRA expression fold change [4]: 3.93
- HPRT1 expression fold change [4]: 1.83
- HSPA1A expression fold change [4]: 1.34
- HSPA1B expression fold change [4]: 1.71
- HSPA1L expression fold change [4]: −5.37
- IFI44 expression fold change [4]: 2.98
- IGF1 expression fold change [4]: 3.42
- IGF2 expression fold change [4]: −1.09
- IL1A expression fold change [4]: 1.97
- IL6 expression fold change [4]: −1.83
- IL10 expression fold change [4]: 1.13
- KRAS expression fold change [4]: 1.90
- MAPK14 expression fold change [4]: 1.65
- NADSYN1 expression fold change [4]: 1.44
- NFKB1 expression fold change [4]: 2.34
- NOS2A expression fold change [4]: 3.80
- PARP1 expression fold change [4]: 1.65
- PARP2 expression fold change [4]: 3.42
- PPARG expression fold change [4]: 3.19
- PPC fold change [4]: 1.25 and 1.21
- PTGS2 expression fold change [4]: 1.83
- SHC1 expression fold change [4]: −1.49
- SIRT1 expression fold change [4]: 1.77
- SOD1 expression fold change [4]: −1.71
- SOD2 expression fold change [4]: 1.17
- TEP1 expression fold change [4]: 1.13
- TERT expression fold change [4]: 4.36
- TNF expression fold change [4]: −1.09
- TP53 expression fold change [4]: 1.21
- ACE expression fold change [5]: −1.11
- ACTB expression fold change [5]: −1.57
- APOE expression fold change [5]: 1.41
- BAX expression fold change [5]: −2.23
- BCL2 expression fold change [5]: −1.15
- CASP2 expression fold change [5]: −2.47
- CASP9 expression fold change [5]: −1.94
- CCL4L1 expression fold change [5]: 9.48
- CLK1 expression fold change [5]: −1.11
- COX1 expression fold change [5]: −1.81
- CREBBP expression fold change [5]: −1.00
- CYP19A1 expression fold change [5]: 9.48
- DDC expression fold change [5]: 42.08
- GAPDH expression fold change [5]: −1.57
- GH1 expression fold change [5]: 16.51
- HIGX1A fold change [5]: 17.09
- HLA-DRA expression fold change [5]: 18.96
- HPRT1 expression fold change [5]: 1.41
- HSPA1A expression fold change [5]: −1.87
- HSPA1B expression fold change [5]: −2.08
- HSPA1L expression fold change [5]: 1.80
- IFI44 expression fold change [5]: −1.28
- IGF1 expression fold change [5]: 8.85
- IGF2 expression fold change [5]: −1.15
- IL1A expression fold change [5]: 7.70
- IL6 expression fold change [5]: −1.04
- IL10 expression fold change [5]: 4.74
- KRAS expression fold change [5]: −1.69
- MAPK14 expression fold change [5]: −1.63
- NADSYN1 expression fold change [5]: −1.63
- NFKB1 expression fold change [5]: −1.04
- NOS2A expression fold change [5]: 34.18
- PARP1 expression fold change [5]: −1.57
- PARP2 expression fold change [5]: 7.44
- PPARG expression fold change [5]: 1.74
- PTGS2 expression fold change [5]: 2.14
- SHC1 expression fold change [5]: −1.11
- SIRT1 expression fold change [5]: −1.15
- SOD1 expression fold change [5]: −1.32
- SOD2 expression fold change [5]: −1.24
- TEP1 expression fold change [5]: −1.00
- TERT expression fold change [5]: 7.97
- TNF expression fold change [5]: 7.44
- TP53 expression fold change [5]: −1.32
- ACE expression fold change [6]: 1.16
- ACTB expression fold change [6]: 1.43
- APOE expression fold change [6]: −1.06
- BAX expression fold change [6]: 1.95
- BCL2 expression fold change [6]: 1.76
- CASP2 expression fold change [6]: 1.33
- CASP9 expression fold change [6]: 1.58
- CCL4L1 expression fold change [6]: 1.08
- CLK1 expression fold change [6]: −1.22
- COX1 expression fold change [6]: 1.12
- CREBBP expression fold change [6]: 1.70
- CYP19A1 expression fold change [6]: 1.01
- DDC expression fold change [6]: 1.08
- GAPDH expression fold change [6]: 1.16
- GH1 expression fold change [6]: −1.06
- HIGX1A fold change [6]: −1.50
- HLA-DRA expression fold change [6]: 1.38
- HPRT1 expression fold change [6]: 1.38
- HSPA1A expression fold change [6]: 2.16
- HSPA1B expression fold change [6]: 2.32
- HSPA1L expression fold change [6]: −1.14
- IFI44 expression fold change [6]: 1.53
- IGF1 expression fold change [6]: −1.79
- IGF2 expression fold change [6]: −1.03
- IL1A expression fold change [6]: −1.40
- IL6 expression fold change [6]: −6.01
- IL10 expression fold change [6]: 1.76
- KRAS expression fold change [6]: 1.76
- MAPK14 expression fold change [6]: 1.48
- NADSYN1 expression fold change [6]: 1.08
- NFKB1 expression fold change [6]: 1.01
- NOS2A expression fold change [6]: −1.56
- PARP1 expression fold change [6]: 2.32
- PARP2 expression fold change [6]: 1.16
- PPARG expression fold change [6]: 1.29
- PTGS2 expression fold change [6]: 2.95
- SHC1 expression fold change [6]: 1.20
- SIRT1 expression fold change [6]: 1.53
- SOD1 expression fold change [6]: 1.24
- SOD2 expression fold change [6]: −1.35
- TEP1 expression fold change [6]: 1.76
- TERT expression fold change [6]: −1.14
- TNF expression fold change [6]: 1.95
- TP53 expression fold change [6]: −1.31
- ACE expression fold change [7]: 1.40
- ACTB expression fold change [7]: 4.88
- APOE expression fold change [7]: −2.48
- BAX expression fold change [7]: −1.64
- BCL2 expression fold change [7]: −1.53
- CASP2 expression fold change [7]: −1.38
- CASP9 expression fold change [7]: −1.88
- CCL4L1 expression fold change [7]: −2.09
- CLK1 expression fold change [7]: −1.04
- COX1 expression fold change [7]: −2.32
- CREBBP expression fold change [7]: 1.14
- CYP19A1 expression fold change [7]: −2.48
- DDC expression fold change [7]: −1.58
- GAPDH expression fold change [7]: 2.13
- GH1 expression fold change [7]: 1.40
- HIGX1A fold change [7]: −2.16
- HLA-DRA expression fold change [7]: 1.31
- HPRT1 expression fold change [7]: 2.20

— patent US20140079836A1, “METHODS AND COMPOSITIONS FOR ALTERING HEALTH, WELLBEING, AND LIFESPAN” (LifeSpan Extension, LLC, priority 2008, published 2014)
